Laboratory results reported in patent publication US20220110985A1, “NUTRITIONAL COMPOSITION COMPRISING 2'FUCOSYLLACTOSE AND 3'GALACTOSYLLACTOSE” (N.V. Nutricia, priority 2019, published 2022).
Marks after values point to notes of the source that are not given here.

How the values were obtained:
[1] = tested on: Caco-2 cell monolayer; experiment: DON-induced impairment of Caco-2 cell monolayer integrity (TEER, lucifer yellow flux); format: cell-based, human; details: for effect on DON-induced loss of epithelial barrier integrity (TEER, LY flux), in words: 24 h pretreatment (GLs 0.75 wt. %; 2′-FL 1 mg/ml), then DON 4.2 μM 24 h
Procedure: Beta1,3′-galactosyl-lactose (beta3′-GL), beta1,4′-galactosyllactose (beta4′-GL) and beta1,6′-galactosyl-lactose (beta6′-GL) were obtained from Carbosynth (Berkshire, UK). Alpha1,3′-galactosyl-lactose (alpha3′-GL) was obtained from Elicityl (Crolles, France). Purified deoxydivalenol (DON) (D0156; Sigma Aldrich, St Luis, Mo., USA) was dissolved in pure ethanol and stored at −20° C. Human epithelial colorectal adenocarcinoma (Caco-2) cells were obtained from American […] (Code HTB-37) (Manasse, Va., USA, passage 90-102).
Caco-2 cells were used according to established methods. In brief: cells were cultured in Dulbecco's modified Eagle medium (DMEM) and seeded at a density of 0.3×10^5 cells into 0.3 cm^2 high pore density (0.4 μm) inserts with a polyethylene terephthalate membrane (BD Biosciences, Franklin Lakes, N.J., USA) placed in a 24-well plate. The Caco-2 cells were maintained in a humidified atmosphere of 95 air and 5% CO2 at 37° C.
Caco-2 cell monolayers were thus grown in a transwell system, which is a model for intestinal barrier function. The monolayers were pretreated for 24 h with different GLs, including beta3′-GL, alpha3′-GL, beta4′-GL and beta6′-GL in a concentration of 0.75 wt. % of the GL, before being exposed to the fungal toxin deoxynivalenol (DON), which is a trigger and model compound to impair intestinal barrier. DON was diluted to a final concentration of 4.2 μM in complete cell medium and added to the apical side as well as to the basolateral side of the transwell inserts. […] Incubation with DON was 24 h.
Measurements of the transepithelial electrical resistance (TEER) and lucifer yellow (LY) permeability were conducted to investigate barrier integrity. For TEER measurements a Millicel-ERS voltohmmeter connected to a pair of chopsticks electrodes was used to measure the TEER values. Results are expressed as a percentage of the initial value. For paracellular tracer flux assay the membrane impermeable lucifer yellow (LY) (Sigma, St Luis, Mo., USA) was added in a concentration of 16 μg/ml to the apical compartment in the transwell plate for 4 h, and the paracellular flux was determined by measuring the fluorescence intensity in the basolateral compartment with a spectrophotofluorimeter (FLUOstar Optima, BMG Labtech, Offenburg, Germany) set at excitation and emission wavelengths of 410 and 520 nm, respectively. Release of interleukin-8 (IL-8 or CXCL8), which is a typical marker for inflammation, was quantified in the medium of the apical side and the basolateral side of the Caco-2 transwell inserts in response to the treatments. CXCL8 concentrations were measured by using the human IL-8 ELISA assay (BD Biosciences, Pharmingem, San Diego, Calif., USA) according to manufacturer's instructions. For more details on materials and methods see Akbari et al, 2016, Eur J Nutr. 56(5):1919-1930.

[2] = tested on: T84 human intestinal epithelial cells; experiment: T84 monolayer barrier integrity (TEER) with IL-4; format: cell-based; details: butyric acid 4 mM, TEER increase relative to t=0
Procedure: T84 human intestinal epithelial cells are commonly used to study intestinal barrier integrity in vitro. T84 cells (ATCC, USA) were cultured on 12 mm transwell inserts (0.4 μm, Corning Costrar, USA) in DMEM-F12 glutamax with penicillin-streptomycin (100 IU/ml), supplemented with 5% FBS-Hl. T84 cells were used 14 days after reaching confluence. Monolayers of T84 cultured on transwell filters were pre-incubated for 48 h with or without butyrate. These samples were subsequently incubated for an additional 48 h in the presence of IL-4 (25 ng/ml). IL-4 was added to the basolateral compartment; medium and additives were changed every 24 h.
Epithelial barrier integrity was assessed by measuring transepithelial resistance (TEER; Ω×cm^2) with the epithelial volt-ohm meter (EVOM; World Precision Instruments, Germany).
Results are shown in Table 5 where relative TEER values are presented. The 48 h and 96 h column is the TEER increase relative to t=0 value. IL-4 treatment disrupted the intestinal barrier function; however in the presence of butyrate this disruption was ameliorated.

[3] = tested on: human peripheral blood mononuclear cells (PBMCs); experiment: PBMC cell activity (WST-1); format: cell-based; details: after 24 h; non-stimulated and CD3/CD28 stimulated conditions
Procedure: Isolation of PBMC from healthy donors: Human peripheral blood mononuclear cells (PBMC) from healthy donors were isolated from buffy coats (Sanquin, Amsterdam, the Netherlands). PBMC were obtained by centrifugation using Leucosep tubes (Greiner Bio-One). PBMC were collected and washed in PBS (Gibco, Thermo Fisher Technologies)+2% heat-inactivated FCS (Invitrogen), followed by hypotonic lysis of erythrocytes with sterile lysis buffer (0.15 M NH4Cl, 0.01 M KHCO3 and 0.1 mM EDTA, pH of 7.4 at 4° C., all from Merck, Darmstadt, Germany). After lysis, the PBMC were resuspended in freezing medium (70% RPMI 1640 medium (Gibco, Thermo Fisher Technologies) supplemented with 10% heat-inactivated FCS and 100 U/ml penicillin-streptomycin, 20% heat-inactivated FCS and 10% DMSO (Sigma)) and cryopreserved.
PBMC activation model: PBMC (0.2·10^6 cell/well) were cultured in 96-well flat bottom plates (Corning). For 24 hours the cells were pre-incubated with 2′-FL (Jennewein), 3′-GL (0-0.3% w/v; Carbosynth) or sodium butyrate (0.2 mM; Sigma Aldrich) and combinations thereof. Subsequently, the cells were CD3/CD28-activated (Pelicluster CD3 and Pelicluster CD28, Sanquin) for an additional 24 hours. After incubation, IFNγ was measured by ELISA in the supernatants (see below). To determine cell activity after stimulation, PBMC were incubated with cell proliferation reagent WST-1 (10 μl; Roche) and/or 10% Triton (5 μl; negative control). After 3 hours, absorbance was measured at OD450 nm and OD650 nm and cell activity was calculated according to manufacturer's instructions.

[4] = tested on: human PBMC, unstimulated; experiment: Cytokine production of unstimulated PBMC (IL10, CCL20); format: cell-based
From the text: Isolation of PBMC from healthy donors: Human peripheral blood mononuclear cells (PBMC) from healthy donors were isolated from buffy coats (Sanquin, Amsterdam, the Netherlands). PBMC were obtained by centrifugation using Leucosep tubes (Greiner Bio-One). […] After lysis, the PBMC were resuspended in freezing medium (70% RPMI 1640 medium (Gibco, Thermo Fisher Technologies) supplemented with 10% heat-inactivated FCS and 100 U/ml penicillin-streptomycin, 20% heat-inactivated FCS and 10% DMSO (Sigma)) and cryopreserved. PBMC activation model: PBMC (0.2·10^6 cell/well) were cultured in 96-well flat bottom plates (Corning). For 24 hours the cells were pre-incubated with 2'-FL (Jennewein), 3'-GL (0-0.3% w/v; […] Sigma Aldrich) and combinations thereof. Subsequently, the cells were CD3/CD28-activated (Pelicluster CD3 and Pelicluster CD28, Sanquin) for an additional 24 hours. After incubation, IFNγ was measured by ELISA in the supernatants (see below). […] Roche) and/or 10% Triton (5 μl; negative control). […] Cytokine production of PBMC: PBMC were incubated with indicated reagents. After incubation, the supernatants were collected and IL2, IL6, IL10, IL13, IL21, TNFα, IFNγ, MIF, CCL1, CCL13, CCL17, CCL20, CCL22 and CXCL8-11 levels were measured by conducting a validated multiplex immunoassay based on Luminex technology (xMAP, Luminex Austin Tex. USA). Acquisition was conducted with the Biorad […] (Biorad laboratories, Hercules USA) in combination with xPONENT software version 4.2 (Luminex). Data was analyzed by 5-parametric curve fitting using Bio-Plex Manager software, version 6.1.1 (Biorad). After PBMC stimulation, cell culture supernatants were collected, after which cytokine responses were measured in order to test immune responsiveness of the cells. The levels of cytokines measured in stimulated conditions were corrected for the (low) levels of the cytokines measured in non-stimulated conditions. In addition, since each donor is reacting in its own efficiency onto the T cell stimulus, we calculated the individual index of cytokine response by dividing the intervention induced response by the basal stimulated response.

[5] = Caco-2 monolayer, DON 4.2 μM, 2′-FL 1 mg/ml

## CC1=C[C@H]2O[C@@H]3[C@H](O)C[C@](C)([C@@]2(CO)[C@H](O)C1=O)[C@]31CO1 [DON, deoxynivalenol]
[1]; [5]
  Lucifer yellow flux: 530.8 (3.975)*** ng/ml (cm^2xh)
  TEER (% of initial value) Mean (s.e.): 34.33 (1.088)*** % of initial value

## OC[C@H]1O[C@H](O[C@H]2[C@@H](O)[C@@H](CO)O[C@@H](O[C@H]3[C@H](O)[C@@H](O)C(O)O[C@@H]3CO)[C@@H]2O)[C@H](O)[C@@H](O)[C@H]1O (stereo partly drawn) [alpha3′-GL, Gal (alpha 1-3)-Gal (beta 1-4)-Glc]
[1]
  effect on DON-induced loss of epithelial barrier integrity (TEER, LY flux), in words: did not prevent the DON-induced disrupted intestinal barrier

## CCCC(=O)O [butyrate, butyric acid]
[2]; 48 h pre-incubation
  % TEER at 48 h: 79 (25) %
[2]; additional 48 h with IL-4 25 ng/ml
  % TEER at 96 h (IL-4): 26 (16) %
[3]
  Immune cell activity as measured by WST, in words: did not influence immune cell metabolic activity
[4]; 0.2% 2′-FL, 0.2 mM butyrate
  IL10 level as compared to blanc control, in words: did not have an effect
[4]; unstimulated PBMC
  CCL20 level as compared to blanc control, in words: did not have a statistically significant effect
[4]; unstimulated, 0.2% w/v 2′-FL, 0.2 mM butyrate, blanc = 1, observed
  Relative IL10 level, mean (se): 1.911 (0.203)
[4]; unstimulated, 0.2% w/v 2′-FL, 0.1 w/v % 3′-GL, 0.2 mM butyrate, blanc = 1, observed
  Relative CCL 20 mean (s.e.): 1.053 (0.127)

## OC[C@H]1O[C@@H](OC[C@H]2O[C@@H](O[C@H]3[C@H](O)[C@@H](O)C(O)O[C@@H]3CO)[C@H](O)[C@@H](O)[C@H]2O)[C@H](O)[C@@H](O)[C@H]1O (stereo partly drawn) [beta6′-GL, Gal (beta 1-6)-Gal (beta 1-4)-Glc]
[1]
  effect on DON-induced loss of epithelial barrier integrity (TEER, LY flux), in words: did not show a significant effect

## OC[C@H]1O[C@@H](O[C@@H]2[C@H](O)[C@@H](O)[C@H](O[C@H]3[C@H](O)[C@@H](O)C(O)O[C@@H]3CO)O[C@@H]2CO)[C@H](O)[C@@H](O)[C@H]1O (stereo partly drawn) [beta4′-GL, Gal (beta 1-4)-Gal (beta 1-4)-Glc]
[1]
  effect on DON-induced loss of epithelial barrier integrity (TEER, LY flux), in words: did not show a significant effect
